Source: ChEMBL document CHEMBL2176897, “Synthesis and biological evaluation (in vitro and in vivo) of cyclic arginine-glycine-aspartate (RGD) peptidomimetic-paclitaxel conjugates targeting integrin αVβ3” (J Med Chem, 2012)
The source made the active and inactive calls. No cut-off for these calls is given here.

Columns and labels:
[1] = Antitumor activity against cisplatin-resistant human IGROV1/Pt1 cells overexpressing integrin alphaVbeta3 receptors xenografted in athymic Swiss mouse assessed as tumor volume inhibition at 30 mg/kg, iv administered every 4 days for 4 times measured after 10 days relative to control; assay type: functional; conditions: IGROV-1
U2OS = assay: Cytotoxicity against human U2OS cells after 72 hrs by coulter counter analysis; assay type: functional, cell-based
IGROV-1 [2] = assay: Cytotoxicity against cisplatin-resistant human IGROV1/Pt1 cells after 72 hrs by coulter counter analysis; assay type: functional, cell-based; conditions: IGROV-1, 72 h
Mus musculus [3] = assay: Toxicity in athymic Swiss mouse xenografted with cisplatin-resistant human IGROV1/Pt1 cells overexpressing integrin alphaVbeta3 receptors assessed as body weight loss at 30 mg/kg, iv administered every 4 days for 4 times; assay type: organism-based, IGROV-1; design: dose 30 mg/kg, route intravenous; conditions: in vivo, 96 h
[4] = Solubility of the compound in 0.9% NaCl in H2O/Cremophor EL/ethanol 90:5:5 v/v at 1.28 mM measured for 1 week by HPLC analysis; assay type: physicochemical; conditions: 168 h, 1280 µM
IGROV-1 [5] = assay: Antitumor activity against cisplatin-resistant human IGROV1/Pt1 cells overexpressing integrin alphaVbeta3 receptors xenografted in athymic Swiss mouse assessed as disappearance of tumor lasting at 15 mg/kg, iv administered every 4 days for 4 times measured up to 10 days; assay type: functional, organism-based; design: dose 15 mg/kg
[6] = Cytostatic activity against human dermal fibroblasts assessed as growth inhibition at 64 to 1000 nM after 72 hrs by coulter counter analysis; conditions: skin fibroblast, 1 µM
SK-OV-3 = assay: Cytotoxicity against human SKOV3 cells after 72 hrs by coulter counter analysis; assay type: functional, cell-based; conditions: SK-OV-3, 72 h
[7] = Half life in human plasma at 10 uM by HPLC analysis; assay type: ADME, cell-free
[8] = Antitumor activity against cisplatin-resistant human IGROV1/Pt1 cells overexpressing integrin alphaVbeta3 receptors xenografted in athymic Swiss mouse assessed as tumor volume inhibition at 15 mg/kg, iv administered every 4 days for 4 times measured after 10 days relative to control; assay type: functional; conditions: IGROV-1
Integrin alpha-V/beta-5 = Integrin alpha-V/beta-5 (Homo sapiens, UniProt P06756+P18084); assay: Competitive inhibition of biotinylated vitronectin to integrin alphaVbeta5 receptor after 3 hrs by microplate reader analysis; assay type: protein-complex assay
[9] = Antitumor activity against cisplatin-resistant human IGROV1/Pt1 cells overexpressing integrin alphaVbeta3 receptors xenografted in athymic Swiss mouse assessed as tumor killing at 30 mg/kg, iv administered every 4 days for 4 times; assay type: functional, IGROV-1
IGROV-1 [10] = assay: Cytotoxicity against human IGROV1 cells after 72 hrs by coulter counter analysis; assay type: functional, cell-based; conditions: IGROV-1, 72 h
[11] = Stability of the compound in 0.9% NaCl in H2O/Cremophor EL/ethanol 90:5:5 v/v at 1.28 mM measured for 1 week by HPLC analysis; assay type: physicochemical; conditions: 168 h, 1280 µM
[12] = Solubility of the compound in 0.9% NaCl in H2O/Cremophor EL/ethanol 90:5:5 v/v at 1.92 mM after 2 days by HPLC analysis; assay type: physicochemical; conditions: 48 h, 1920 µM
Mus musculus [13] = assay: Toxicity in athymic Swiss mouse xenografted with cisplatin-resistant human IGROV1/Pt1 cells overexpressing integrin alphaVbeta3 receptors assessed as body weight loss at 15 mg/kg, iv administered every 4 days for 4 times; assay type: organism-based, IGROV-1; design: dose 15 mg/kg, route intravenous; conditions: in vivo, 96 h
IGROV-1 [14] = assay: Induction of abberant mitosis in cisplatin-resistant human IGROV1/Pt1 cells overexpressing integrin alphaVbeta3 receptors xenografted in athymic Swiss mouse at 30 mg/kg, iv measured 24 hrs post second treatment by hematoxylin and eosin staining; assay type: functional, organism-based; design: dose 30 mg/kg
[15] = Selectivity ratio of IC50 for integrin alphaVbeta5 receptor to IC50 for integrin alphaVbeta3 receptor
[16] = Antitumor activity against cisplatin-resistant human IGROV1/Pt1 cells overexpressing integrin alphaVbeta3 receptors xenografted in athymic Swiss mouse assessed as tumor killing at 15 mg/kg, iv administered every 4 days for 4 times; assay type: functional, IGROV-1
[17] = Stability of the compound in 0.9% NaCl in H2O/Cremophor EL/ethanol 90:5:5 v/v at 1.92 mM after 2 days by HPLC analysis; assay type: physicochemical; conditions: 48 h, 1920 µM
IGROV-1 [18] = assay: Antitumor activity against cisplatin-resistant human IGROV1/Pt1 cells overexpressing integrin alphaVbeta3 receptors xenografted in athymic Swiss mouse assessed as absence of disease at 30 mg/kg, iv administered every 4 days for 4 times measured up to 10 days; assay type: functional, organism-based; design: dose 30 mg/kg
IGROV-1 [19] = assay: Induction of abberant mitosis in cisplatin-resistant human IGROV1/Pt1 cells overexpressing integrin alphaVbeta3 receptors xenografted in athymic Swiss mouse at 30 mg/kg, iv measured 24 hrs post fourth treatment by hematoxylin and eosin staining; assay type: functional, organism-based; design: dose 30 mg/kg
PANC-1 = assay: Cytotoxicity against human PANC1 cells after 72 hrs by coulter counter analysis; assay type: functional, cell-based; conditions: PANC-1, 72 h
MIA PaCa-2 = assay: Cytotoxicity against human MIAPaCa2 cells after 72 hrs by coulter counter analysis; assay type: functional, cell-based; conditions: MIA PaCa-2, 72 h
[20] = Half life in mouse plasma at 10 uM by HPLC analysis; assay type: ADME, cell-free
Integrin alpha-V/beta-3 = Integrin alpha-V/beta-3 (Homo sapiens, UniProt P05106+P06756); assay: Competitive inhibition of biotinylated vitronectin to integrin alphaVbeta3 receptor after 3 hrs by microplate reader analysis; assay type: protein-complex assay

CC(=O)O[C@H]1C(=O)[C@@]2(C)[C@H]([C@H](OC(=O)c3ccccc3)[C@]3(O)C[C@H](OC(=O)[C@H](OC(=O)CCC(=O)NCc4ccc(CN5C(=O)[C@H]6CC(=O)N[C@@H](CCCNC(=N)N)C(=O)NCC(=O)N[C@@H](CC(=O)O)C(=O)NC[C@H]5C(=O)N6)cc4)[C@@H](NC(=O)c4ccccc4)c4ccccc4)C(C)=C1C3(C)C)[C@]1(OC(C)=O)CO[C@@H]1C[C@@H]2O
inhibition in vivo at 30 mg/kg [1]: 85%
IC50 (U2OS): 12.8 nM
IC50 (IGROV-1 [2]): 4.9 nM
Activity (Mus musculus [3]): 3%
solubility [4]: soluble
Activity (IGROV-1 [5]): Active
growth inhibition (GI) [6]: Non-toxic
IC50 (SK-OV-3): 1.2 nM
half-life at 10 µM [7]: 2.38 h
inhibition in vivo at 15 mg/kg [8]: 64%
IC50 (Integrin alpha-V/beta-5): 219 nM
LCK [9]: 1.4
IC50 (IGROV-1 [10]): 61.3 nM
Stability [11]: Stable
solubility [12]: Insoluble
Activity (Mus musculus [13]): 0%
Activity (IGROV-1 [14]): Active
Ratio IC50 [15]: 20
LCK [16]: 0.3
Stability [17]: Unstable
Activity (IGROV-1 [18]): Active
Activity (IGROV-1 [19]): Active
IC50 (PANC-1): 2.4 nM
IC50 (MIA PaCa-2): 2.3 nM
half-life at 10 µM [20]: 2.75 h
IC50 (Integrin alpha-V/beta-3): 5.2 nM
